Data on 17 molecules can be found in ChEMBL document CHEMBL1154134, “Scalarane sesterterpenes from the sponge Smenospongia sp” (J Nat Prod, 2008).

Each structure is given as a SMILES string. Values after ≈ are worked out from the molar mass of the structure shown.

One experiment concerns the target Isocitrate lyase (Magnaporthe oryzae (strain 70-15 / FGSC 8958) (Rice blast fungus)(Pyricularia oryzae), UniProt P0CT06). Put plainly: Inhibition of Magnaporthe grisea isocitrate lyase. Also on record: species or system Pyricularia grisea.
The subject of a further experiment is Staphylococcus aureus. The experiment in a line: Antibacterial activity against Staphylococcus aureus ATCC 65389 after 24 hrs by twofold dilution method. To be noted: ATCC 65389, 24 h. Type of experiment: functional.
The test system of another experiment is Bacillus subtilis. Put plainly: Antibacterial activity against Bacillus subtilis ATCC 6633 after 24 hrs by twofold dilution method. Type of experiment: functional. To be noted: ATCC 6633, 24 h.
The next experiment deals with Micrococcus luteus. The experiment in a line: Antibacterial activity against Micrococcus luteus IFC 12708 after 24 hrs by twofold dilution method. It is filed as functional. To be noted: IFC 12708, 24 h.
The subject of a further experiment is Proteus vulgaris. Put plainly: Antibacterial activity against Proteus vulgaris ATCC 3851 after 24 hrs by twofold dilution method. It is filed as functional. To be noted: ATCC 3851, 24 h.
Another experiment relates to Salmonella typhimurium. The experiment in a line: Antibacterial activity against Salmonella Typhimurium ATCC 14028 after 24 hrs by two-fold dilution method. Type of experiment: functional, Salmonella enterica subsp. enterica serovar Typhimurium. To be noted: Salmonella enterica, ATCC 14028, 24 h.
A further experiment has as its system Escherichia coli. The experiment in a line: Antibacterial activity against Escherichia coli ATCC 25922 after 24 hrs by twofold dilution method. Type of experiment: functional. To be noted: ATCC 25922, 24 h.
The next experiment relates to K562. The experiment in a line: Cytotoxicity against human K562 cells after 48 hrs by SRB assay. Type of experiment: functional. The conditions noted are these: K562, 48 h, read-out: LC50 (the source's name).

Isocitrate lyase, sequence (P0CT06 whole entry): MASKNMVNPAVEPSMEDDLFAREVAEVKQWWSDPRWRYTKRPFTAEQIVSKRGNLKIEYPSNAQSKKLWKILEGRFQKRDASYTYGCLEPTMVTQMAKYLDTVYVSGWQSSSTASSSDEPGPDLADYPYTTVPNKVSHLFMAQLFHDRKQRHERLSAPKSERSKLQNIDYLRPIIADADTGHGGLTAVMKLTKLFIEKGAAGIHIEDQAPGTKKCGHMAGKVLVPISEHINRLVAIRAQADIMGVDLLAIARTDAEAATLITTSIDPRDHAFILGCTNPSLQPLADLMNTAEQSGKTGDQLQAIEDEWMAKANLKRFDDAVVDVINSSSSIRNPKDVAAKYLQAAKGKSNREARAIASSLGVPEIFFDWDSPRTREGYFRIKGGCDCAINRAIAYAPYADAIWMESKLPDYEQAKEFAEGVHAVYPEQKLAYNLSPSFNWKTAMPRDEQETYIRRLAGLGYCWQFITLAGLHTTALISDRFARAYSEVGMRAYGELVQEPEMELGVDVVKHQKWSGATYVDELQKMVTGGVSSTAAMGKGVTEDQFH

Turning to `O=C(O)CC[N+](=O)[O-]`, at Isocitrate lyase, the IC50 (commonly the concentration at which inhibition is half-maximal) was 50.8 µM.
As to `CC1=C(O)/C(=C/[C@H](C)CCC/C(C)=C/CC/C(C)=C/CCc2ccoc2)OC1=O`, the MIC (in general, the least concentration at which growth counts as inhibited) is 12.5 µg/mL (≈ 31.4 µM) against Staphylococcus aureus; 6.25 µg/mL (≈ 15.7 µM) in the experiment with Bacillus subtilis; 6.25 µg/mL (≈ 15.7 µM) against Micrococcus luteus; 6.25 µg/mL (≈ 15.7 µM) against Proteus vulgaris; 6.25 µg/mL (≈ 15.7 µM) with Salmonella typhimurium; above 100 µg/mL with Escherichia coli. The CC50 in the experiment on K562 turned out to be 43.7 µg/mL (≈ 110 µM). At Isocitrate lyase, half-maximal inhibition (IC50) was put at 67.7 µM.
Turning to `C/C(=C\CC/C(C)=C/C[C@H](O)c1ccoc1)CC/C=C(\C)CC(=O)CC(C)C`, the MIC against Staphylococcus aureus is above 100 µg/mL; with Bacillus subtilis it was 6.25 µg/mL (≈ 16.2 µM); against Micrococcus luteus it was above 100 µg/mL; in the experiment on Proteus vulgaris, above 100 µg/mL; in the experiment with Salmonella typhimurium it was above 100 µg/mL; against Escherichia coli, above 100 µg/mL. In addition, in the experiment with K562, the CC50 was 5.7 µg/mL (≈ 14.7 µM). Besides, at Isocitrate lyase, the IC50 was above 259 µM.
Regarding `CC(=O)O[C@@H]1OC=C2[C@H]1[C@@]1(C)CC[C@H]3[C@@](C)(CC[C@H]4C(C)(C)CCC[C@]34C)[C@@H]1C[C@@H]2O`, the MIC is above 100 µg/mL against Staphylococcus aureus; 3.12 µg/mL (≈ 7.25 µM) against Bacillus subtilis; above 100 µg/mL against Micrococcus luteus; above 100 µg/mL in the experiment on Proteus vulgaris; 12.5 µg/mL (≈ 29 µM) against Salmonella typhimurium; above 100 µg/mL with Escherichia coli. The CC50 with K562 stood at 5.8 µg/mL (≈ 13.5 µM). On Isocitrate lyase, this molecule gave an IC50 above 232 µM.
For the molecule `CC(=O)O[C@@H]1OC=C2[C@@H](OC(C)=O)C[C@@H]3[C@](C)(CC[C@H]4[C@@]3(C)CC[C@H]3C(C)(C)CCC[C@@]34C=O)[C@H]21`, the MIC against Staphylococcus aureus, with Bacillus subtilis, with Micrococcus luteus, against Proteus vulgaris, in the experiment with Salmonella typhimurium and against Escherichia coli was above 100 µg/mL throughout. In addition, the CC50 with K562 was 17.5 µg/mL (≈ 36 µM). At Isocitrate lyase, this molecule yielded an IC50 above 205 µM.
In the case of `COC(=O)C1=CC[C@@H]2[C@](C)(CC[C@H]3[C@@]2(C)CC[C@H]2C(C)(C)CCC[C@@]23COC(C)=O)[C@H]1C=O`, the MIC with Staphylococcus aureus was 25 µg/mL (≈ 54.5 µM); in the experiment on Bacillus subtilis, 0.78 µg/mL (≈ 1.7 µM); in the experiment on Micrococcus luteus, 12.5 µg/mL (≈ 27.3 µM); in the experiment with Proteus vulgaris, 6.25 µg/mL (≈ 13.6 µM); against Salmonella typhimurium it was 12.5 µg/mL (≈ 27.3 µM); against Escherichia coli, above 100 µg/mL. Further, the CC50 with K562 was 8.6 µg/mL (≈ 18.8 µM). For the same molecule, at Isocitrate lyase, the IC50 is 120 µM.
`COC(=O)C1=CC[C@@H]2[C@](C)(CC[C@H]3[C@@]2(C)CC[C@H]2C(C)(C)CCC[C@@]23COC(C)=O)[C@@H]1C=O`: the minimum inhibitory concentration (MIC) in the experiment on Staphylococcus aureus, in the experiment with Bacillus subtilis, against Micrococcus luteus, against Proteus vulgaris, against Salmonella typhimurium and with Escherichia coli was above 100 µg/mL throughout. Also, the CC50 in the experiment with K562 came to 3.7 µg/mL (≈ 8.07 µM). On Isocitrate lyase, this molecule yielded an IC50 above 218 µM.
In the case of `CC(=O)O[C@@H]1OC(=O)C2=CC[C@@H]3[C@](C)(CC[C@H]4[C@@]3(C)CC[C@H]3C(C)(C)CCC[C@@]34CO)[C@H]21`, the MIC was above 100 µg/mL in the experiment with Staphylococcus aureus; 1.56 µg/mL (≈ 3.51 µM) in the experiment with Bacillus subtilis; 3.12 µg/mL (≈ 7.02 µM) against Micrococcus luteus; above 100 µg/mL against Proteus vulgaris; 6.25 µg/mL (≈ 14.1 µM) against Salmonella typhimurium; above 100 µg/mL against Escherichia coli. Besides, in the experiment on K562, the CC50 was 22.5 µg/mL (≈ 50.6 µM). Besides, at Isocitrate lyase, the IC50 was above 225 µM.
On to `CO[C@@H]1OCC2=CC[C@@H]3[C@](C)(CC[C@H]4[C@@]3(C)CC[C@H]3C(C)(C)CCC[C@@]34CO)[C@H]21`, for which the MIC is above 100 µg/mL in the experiment on Staphylococcus aureus; 50 µg/mL (≈ 124 µM) against Bacillus subtilis; above 100 µg/mL with Micrococcus luteus; above 100 µg/mL with Proteus vulgaris; 6.25 µg/mL (≈ 15.5 µM) against Salmonella typhimurium; above 100 µg/mL in the experiment with Escherichia coli. In addition, the CC50 in the experiment on K562 amounted to 0.11 µg/mL (≈ 0.273 µM). Also, 104 µM corresponded to half-maximal inhibition against Isocitrate lyase (IC50).
Consider `CC(=O)O[C@@H]1OC=C2[C@@H](OC(C)=O)C[C@@H]3[C@](C)(CC[C@H]4[C@@]3(C)CC[C@H]3C(C)(C)CCC[C@@]34CO)[C@H]21`, for which the MIC in the experiment with Staphylococcus aureus was above 100 µg/mL; with Bacillus subtilis it was 0.78 µg/mL (≈ 1.6 µM); against Micrococcus luteus, 100 µg/mL (≈ 205 µM); in the experiment on Proteus vulgaris, above 100 µg/mL; against Salmonella typhimurium, 6.25 µg/mL (≈ 12.8 µM); against Escherichia coli, above 100 µg/mL. In the experiment with K562, the CC50 came to 0.13 µg/mL (≈ 0.266 µM). Also, the IC50 against Isocitrate lyase was above 205 µM.
As for `CC(=O)OC[C@]12CCCC(C)(C)[C@@H]1CC[C@@]1(C)[C@@H]3CC=C(C(=O)O)[C@@H](C=O)[C@@]3(C)CC[C@@H]12`, the MIC is above 100 µg/mL with Staphylococcus aureus; above 100 µg/mL against Bacillus subtilis; above 100 µg/mL with Micrococcus luteus; 100 µg/mL (≈ 225 µM) in the experiment on Proteus vulgaris; above 100 µg/mL against Salmonella typhimurium; above 100 µg/mL in the experiment on Escherichia coli. Moreover, in the experiment with K562, the CC50 is 4.2 µg/mL (≈ 9.45 µM). This molecule also displayed an IC50 against Isocitrate lyase above 225 µM.
For the molecule `CC1=C(O)/C(=C/[C@H](C)CC/C=C(/C)CCC/C=C(/C)CCc2ccoc2)OC1=O`, the MIC is 6.25 µg/mL (≈ 15.7 µM) in the experiment with Staphylococcus aureus; 6.25 µg/mL (≈ 15.7 µM) in the experiment on Bacillus subtilis; 3.12 µg/mL (≈ 7.83 µM) against Micrococcus luteus; 6.25 µg/mL (≈ 15.7 µM) in the experiment on Proteus vulgaris; 12.5 µg/mL (≈ 31.4 µM) in the experiment with Salmonella typhimurium; above 100 µg/mL in the experiment on Escherichia coli. The CC50 with K562 worked out at 7.3 µg/mL (≈ 18.3 µM). Moreover, the IC50 on Isocitrate lyase is 78.3 µM.
Regarding `CC1(C)CCC[C@@]2(CO)[C@H]1CC[C@]1(C)[C@@H]2CC[C@]2(C)c3cocc3CC[C@@H]12`, the MIC was above 100 µg/mL in the experiment with Staphylococcus aureus; 1.56 µg/mL (≈ 4.21 µM) in the experiment on Bacillus subtilis; 6.25 µg/mL (≈ 16.9 µM) with Micrococcus luteus; above 100 µg/mL in the experiment on Proteus vulgaris; 12.5 µg/mL (≈ 33.7 µM) against Salmonella typhimurium; above 100 µg/mL against Escherichia coli. Also, the CC50 with K562 is 0.97 µg/mL (≈ 2.62 µM). Also, on Isocitrate lyase, the IC50 was 123 µM.
Take `CC(=O)OC[C@]12CCCC(C)(C)[C@@H]1CC[C@]1(C)[C@@H]2CC[C@]2(C)c3cocc3CC[C@@H]12`: the MIC in the experiment with Staphylococcus aureus was above 100 µg/mL; against Bacillus subtilis, 3.12 µg/mL (≈ 7.56 µM); in the experiment with Micrococcus luteus it was 25 µg/mL (≈ 60.6 µM); in the experiment on Proteus vulgaris, above 100 µg/mL; against Salmonella typhimurium, above 100 µg/mL; in the experiment on Escherichia coli it was above 100 µg/mL. In the experiment with K562, the CC50 turned out to be 2.3 µg/mL (≈ 5.57 µM). On Isocitrate lyase, the 50% inhibitory concentration (IC50) was above 242 µM.
Turning to `CC(=O)OC[C@]12CCCC(C)(C)[C@@H]1CC[C@@]1(C)[C@@H]3C[C@H](OC(C)=O)C4=CO[C@@H](OC(C)=O)[C@@H]4[C@@]3(C)CC[C@@H]12`, the MIC with Staphylococcus aureus, in the experiment on Bacillus subtilis, with Micrococcus luteus, in the experiment with Proteus vulgaris, with Salmonella typhimurium and against Escherichia coli was above 100 µg/mL in each case. Also, in the experiment on K562, the CC50 stood at 6.8 µg/mL (≈ 12.8 µM). The molecule also registered an IC50 at Isocitrate lyase above 188 µM.
For the molecule `CC1(C)S[C@@H]2[C@H](NC(=O)[C@H](N)c3ccccc3)C(=O)N2[C@H]1C(=O)O` [AMPICILLIN], the MIC with Staphylococcus aureus came out at 1.56 µg/mL (≈ 4.46 µM); in the experiment on Bacillus subtilis, 1.56 µg/mL (≈ 4.46 µM); against Micrococcus luteus, 1.56 µg/mL (≈ 4.46 µM); against Proteus vulgaris, 3.12 µg/mL (≈ 8.93 µM); in the experiment on Salmonella typhimurium it was 3.12 µg/mL (≈ 8.93 µM); against Escherichia coli, 12.5 µg/mL (≈ 35.8 µM).
As for `COc1cccc2c1C(=O)c1c(O)c3c(c(O)c1C2=O)C[C@@](O)(C(=O)CO)C[C@@H]3O[C@H]1C[C@H](N)[C@H](O)[C@H](C)O1` [DOXORUBICIN], in the experiment on K562, the CC50 came to 4.9 µg/mL (≈ 9.02 µM).
